Data on one compound can be found in patent publication US12564568B2, “PKC pathway in Parkinson's Disease” (CEDARS-SINAI MEDICAL CENTER, priority 2018, dated 2026).

In the test the test system is α-synuclein. The experiment in a line: α-synuclein protein level in day 30 iPSC-derived mDA (DaN) cultures after drug treatment (western blot, immunostaining). The format is cell-based, human. The protocol: iPSC maintenance, mDA neuron differentiation and drug treatments: iPSCs were maintained in E8 media on Matrigel and passaged every 5 days at split ratios from 1:6 to 1:12 as needed using Versene. Only iPSCs between passage 17 and passage 35 were used in this study. For differentiation, iPSCs were grown to ˜80% confluency. Cells were singularized with Accutase (Millipore/Sigma #SCR005) (5 minutes at 37° C.) and plated onto Matrigel-coated 6-well plates (BD Biosciences) at 200K cells per cm^2 (for a fully confluent monolayer) in E8 media with 5 μM Y27632 (StemGent). 24 hours after plating, media was changed to Stage 1 (50% DMEM/F12, 50% Neurobasal, N2, B27-Vitamin A, LDN-193189 (LDN), SB431542 (SB)). Stage 1 media was changed each day (3 mL per well) for 3 days. Media was next switched to Stage 2 (50% DMEM/F12, 50% Neurobasal, N2, B27-Vitamin A, LDN, SB, Purmorphamine (PMN), CHIR99021 (CHIR), Sonic hedgehog (SHH), Fibroblast Growth Factor 8 (FGF8)). Stage 2 media was changed each day (3 mL per well) for 4 days. Media was then switched to Stage 3 (50% DMEM/F12, 50% Neurobasal, N2, B27-Vitamin A, LDN, CHIR, all-trans-Retinoic acid (ATRA)). Stage 3 media was changed each day (3 mL per well) for 4 days. Finally, media was switched to Stage 4 (50% DMEM/F12, 50% Neurobasal, N2, B27+Vitamin A, Brain-Derived Neurotrophic Factor (BDNF), Glial Cell Line-Derived Neurotrophic Factor (GDNF), dibutyryl cyclic-AMP sodium salt (dbCAMP), L-Ascorbic Acid (AA), γ-Secretase inhibitor (DAPT), CHIR, Transforming Growth Factor beta-3 (TGF β3)). Stage 4 media was changed each day (3 mL per well) for 3 days. On day 15, cells were dissociated to single cells using Accutase (20 mins at 37° C.) and gently lifted. Dissociated cells were resuspended in Maturation Medium (50% DMEM/F12, 50% Neurobasal, N2, B27+Vitamin A, BDNF, GDNF, dbCAMP, AA, DAPT, TGF3) plus 5 μM Y27632 and reseeded onto Matrigel-coated 6-well plates at 200 k/cm^2 in 1 mL total volume or onto Matrigel-coated L-glass coverslips in a 24-well plate at 200 k/50 μL drop. Cells were allowed to attach for 45 mins at 37° C. and Maturation Medium was then added to final volumes of 3 mL per well for 6-well plates or 1.5 mL per well for 24-well plates with coverslips. A full medium change was performed 48-hours post-seeding and medium was changed every 3 days until day 30. For drug treatments, cells at day-27 were fed with Maturation Medium containing the indicated drug and cells were analyzed at day 30.
Immunocytochemistry and imaging: mDA neuron cultures were plated on L-glass coverslips and grown as above. Day 30 neurons were fixed in 4% PFA at room temperature for 10-15 mins. Fixed coverslips were washed in PBS and permeabilized for 10 minutes at room temperature in 1% Triton X-100 in PBS, followed by staining in primary antibody solution (5% normal donkey serum, 0.125% Triton-X, PBS) overnight at 4° C. with the following antibodies: TH (1:5000, Immunostar #22941) and α-synuclein (1:500, Abcam #ab138501). Samples were washed 3 times in PBS and stained with species-specific Alexa Fluor 488 or 594-conjugated secondary antibodies (1:500, Invitrogen) for 2 hours at room temperature, followed by DAPI counterstain. Confocal Z-stack images were acquired using a A1 microscope (Nikon) with 40× and 20× objectives and rendered using maximum intensity projection through IMARIS software (Bitplane).
Western blot: Cells were gently scraped off the plates, washed with PBS, centrifuged at 15000 RPM for 1 min, and dry pellets were frozen at −80° C. Samples were then thawed and lysed using 1×NETN buffer (20 mM Tris-HCl (pH 8.0), 100 mM NaCl, 0.5 mM EDTA and 0.5% NP-40) supplemented with phosphatase/protease inhibitor cocktail (MS-SAFE, Sigma-Aldrich). Lysates were sonicated in an automated cold bath sonicator for 20 mins using alternating 10 sec pulses followed by 10 sec rests. Samples were centrifuged for 20 min at 4° C. at 15000 RPM. Total soluble protein concentrations were measured using a Bradford assay (BIO-RAD). […]

Entries after “also recorded” stand apart in the source; their conditions may differ. Bounds are passed on as bounds.

For the compound `C/C=C(/C)C(=O)O[C@H]1C(C)=C[C@]23C(=O)[C@@H](C=C(CO)[C@@H](O)[C@]12O)[C@H]1[C@@H](C[C@H]3C)C1(C)C` [PEP005, ingenol-3-angelate], the “α-synuclein levels (western blot)” value is “substantially reduced” (EOSPD/PD cultures (190iPD), treated 3 days from day 27, PEP005 1 μM, SMER-28 5 μM, Trehalose); “reduced; also recorded: decrease; also recorded: rapid reduction” (both control and PD cultures / all treated lines, PEP005 1 μM, 3 days). Also, the α-synuclein by immunostaining result (PEP005-treated mDA cultures) is “decreased”. Further, the “amount of α-synuclein protein (western blot)” value (control line cultures (02iCTR), treated 3 days from day 27, PEP005 1 μM, SMER-28 5 μM, Trehalose) is “significantly reduced”. Also, the “α-synuclein at low PEP005 doses” value (dose response study, low doses) was “robust reduction”. In addition, the “time until α-synuclein is degraded in response to drug treatment” value (time-course, control and PD cultures) was no more than 24 h.
